From article PMC9607644, “Glycoconjugation of Quinoline Derivatives Using the C-6 Position in Sugars as a Strategy for Improving the Selectivity and Cytotoxicity of Functionalized Compounds” (Molecules, 2022)

How the values were obtained:
Assay type in all cases: cell-based, human
HCT-116 cells [1] = experiment: Annexin V-FITC/PI apoptosis flow cytometry, HCT-116; details: IC50 dose, 24 h
Description: (§1) Apoptosis is a natural biological process involving programmed cell death and plays an important role in maintaining correct homeostasis between cell proliferation and cell death. This is in contrast to necrosis, which is accompanied by acute inflammation, preceded by cell degradation due to the loss of the integrity of the cell membrane. It is possible to distinguish viable cells from apoptotic and necrotic cell fractions using Annexin V-FITC and Propidium Iodide (PI). Annexin V-FITC labels phosphatidylserine residues that, after the start of apoptosis, are located on the outer surface of the cell membrane, enabling the identification of cells in the early stages of apoptosis. PI binds stoichiometrically to intracellular DNA during late apoptosis and necrosis when the cell membrane has been damaged. This combination allows for the differentiation of early apoptotic (A+/P−), late apoptotic (A+/P+), necrosis (A−/P+), and normal (A−/P−) cells that can be quantified by flow cytometry.
(§2) The cell cycle and the type of cell death induced by the test compounds were measured by using flow cytometry according to the manufacturer’s protocol. […] Control cells were grown with fresh medium supplemented with 0.5% DMSO. After 24 h of incubation, the cells were collected by trypsinization. Then, samples were centrifuged (3 min, 2000 rpm, RT) and washed with PBS, after which the cells were centrifuged again (3 min, 2000 rpm, RT) and the supernatant was carefully removed. The resulting precipitate contained cells, which were used for flow cytometry experiments.
(§3) The fraction of dead cells after treatment with the test compounds were detected using the FITC Annexin-V Apoptosis Detection Kit with PI (BioLegend, San Diego, CA, USA). […] 250 μL of the Annexin-V Binding Buffer was then added and the samples were incubated in the dark on ice for 15 min.

MCF-7 cells [2] = experiment: Annexin V-FITC/PI apoptosis flow cytometry, MCF-7; details: IC50 dose, 24 h
Description: as §1, §2, §3

NHDF-Neo cells = experiment: Cell cycle analysis by flow cytometry, NHDF-Neo; details: IC50 dose, 24 h
Description: After determining the type of cell death caused by the test compounds, the flow cytometry technique was used to study their influence on potential changes in the course of the cell cycle of the HCT-116, MCF-7, and NHDF-Neo lines. The cell cycle is the sequence of growth and division of cells, both normal and cancerous. This process begins from the resting phase (G0) through the active growth phases (G1, S, G2), leading to mitosis (M) in which the cell’s nucleus divides. […] After this time, cells were harvested and treated with a buffer to lysate the cells and isolate the cell nuclei. Propidium iodide was used to assess the amount of DNA in particular phases of the cell cycle. Histograms of DNA content in cells are presented in the Supplementary Materials (Figure S74).
The cell cycle and the type of cell death induced by the test compounds were measured by using flow cytometry according to the manufacturer’s protocol. The cells were seeded into 6-well plates at a density of 3 × 10^5 (HCT-116) or 4 × 10^5 (MCF-7, NHDF-Neo) per well (3 mL) and allowed to attach for 24 h under standard conditions with 5% CO2 at 37 °C. The following day, the medium was removed and cells were treated with solutions of test compounds in fresh medium at a dose equal to their IC50 values. Control cells were grown with fresh medium supplemented with 0.5% DMSO. After 24 h of incubation, the cells were collected by trypsinization. Then, samples were centrifuged (3 min, 2000 rpm, RT) and washed with PBS, after which the cells were centrifuged again (3 min, 2000 rpm, RT) and the supernatant was carefully removed. The resulting precipitate contained cells, which were used for flow cytometry experiments.
For cell cycle analysis, the cells were suspended in 300 μL of hypotonic buffer (consisting of: sodium citrate dihydrate 1 g/L, propidium iodide (PI) 1 mg/mL, RNAse A 10 mg/mL (EURx, Gdańsk, Poland), Triton X-100 1:9), mixed gently and incubated in the dark at room temperature for 20–30 min. […]

HCT-116 cells [3] = experiment: MTT viability with GLUT1 inhibitor EDG, HCT-116; details: 100 µM EDG, 72 h
Experimental: (§4) To investigate the possible interaction of the tested compounds with glucose receptors and thus to check whether they target the Warburg effect, tests of the influence of the presence of the GLUT inhibitor on the effectiveness of the glycoconjugates were carried out. For this, cells were treated each time with the test compounds in the presence of 100 µM of the GLUT1 inhibitor 4,6-O-ethylidene-α-D-glucose (EDG).

MCF-7 cells [4] = experiment: MTT viability with GLUT1 inhibitor EDG, MCF-7; details: 100 µM EDG, 72 h
Experimental: as §4

## Oc1cccc2cccnc12 [Compound 8HQ, 8-hydroxyquinoline, reference compound]
HCT-116 cells [1]
  apoptosis induction in words, HCT-116: results were similar to the control fraction
MCF-7 cells [2]
  apoptosis induction in words, MCF-7: results were similar to the control fraction
NHDF-Neo cells
  cell cycle phase distribution in words, NHDF-Neo: subG1 phase increasing
HCT-116 cells [3]
  effect of EDG inhibitor in words, HCT-116: did not have any effect on the cellular uptake
MCF-7 cells [4]
  effect of EDG inhibitor in words, MCF-7: did not have any effect on the cellular uptake
